Laboratory results taken from patent publication US9995734B2, “Human T cell line assay for evaluating the immunologic identity of glatiramer acetate preparations” (Mylan Inc., priority 2013, dated 2018).

Assays:
[1] = system: Donor 1 GMA Expanded T-Cell Lines (222-AG11, 222-AG12, 222-BA11, 222-BC11); assay: ATP proliferation assay (CellTiter Glo), Donor 1 GMA expanded T-cell lines, incl. reactivity to non-canonical GA peptides; type: cell-based, human; conditions: for Proliferation (luminescent ATP assay), Mean: T-cell line 222-AG12, autologous B-LCL
Experimental: (§1) Proliferation was evaluated by measuring ATP content using a luminescent method (CellTiter Glo Luminescent Cell Viability Assay, Promega, Madison, Wis., cat. #G7571) or by measuring BrdU uptake by ELISA (Millipore cat. #2752), in both cases following kit instructions. A split well format was used. Cells in each well were resuspended and 65 μl transferred to the wells of each of two new U-bottom 96-well plates, to generate the replicate plates. For the initial screening, the original 96-well plate received mitomycin-treated autologous PBMC as APC plus 10 μg/mL antigen (GA). A first replicate plate received 100 μl., mitomycin-treated PBMC alone (2×10^5), and no antigen, and a second replicate plate received 100 μL mitomycin-treated PBMC plus GA at a final concentration of 10 μg/mL. Therefore, all three plates received autologous APC (PBMC) treated with mitomycin C to prevent cell division. […] The latter two plates were incubated for 3 days at 37° C., 6% CO2 before adding CellTiter Glo or BrdU and measuring signal. IL-2 was added at 10 U/mL to the original 96-well plate for expansion on Day 17. For subsequent screenings, mitomycin-treated EBV-transformed autologous B-LCL (2×10^5 to 5×10^5 cells/mL) were used as APC.
On Day 24, cells from the wells corresponding to the eight presumptive GA-specific human T-cell lines listed in Table 4 were transferred to a 24-well plate and expanded by stimulating with 10 μg/mL GMA and mitomycin-treated autologous PBMC as APC (3×10^6 per well, i.e., 1.5×10^6/mL). On Day 32 four of the eight lines, 222-BA11, 222-BC11, 222-AG11, and 222-AG12, were stimulated with 0, 1, 10 and 100 μg/mL GMA and tested in a 96-well plate for a proliferative response to GMA using an ATP assay, again using autologous PBMC as APC (2×10^5 per well, i.e., 1×10^6/mL). […] FIGS. 2A and B show the results of the ATP proliferation assay carried out using 222-AG12, 222-BC11, 222-AG11, and 222-BA11 at Day 35 (control=no antigen). FIGS. 3A-C compare the results of ATP proliferation assays carried out after stimulation with varying concentrations of GMA or Copaxone as indicated, using cell lines 222-BA11, 222-BC11, and 222-AG12.
Donor 1 GMA T-cell line 222-AG12 was assayed for proliferation following stimulation with 0, 1, 10, and 30 μg/mL each of peptides GLT 631, GAT 631, GAT 111, LT 11, GT 11, GL 14, COP, and GMA, at a T-cell concentration of 2×10^5 cells/mL, in the presence of mitomycin C-treated autologous B-LCL. Line 222-AG12 was assayed after 3 rounds of restimulation (4 total stimulations). Proliferation was measured by luminescent ATP assay.

[2] = system: Donor 1 COP T-Cell Lines; assay: ATP proliferation assay (CellTiter Glo), Donor 1 COP T-cell lines, incl. reactivity to non-canonical GA peptides; type: cell-based, human; conditions: for ATP Proliferation Assay, Mean: Day 56, second assay; for luminescent ATP proliferation assay, mean: no antigen 5673 (Table 9); for Proliferation (luminescent ATP assay), Mean: Day 56 of culturing
Experimental: as §1
COP-responsive T-cell lines were obtained from Donor 1. In the initial stimulation, isolated PBMC were plated at 1×10^5 cells per well (5×10^5 cells/mL) with 10 μg/mL Copaxone and cultured as described above. IL-2 was added to all wells on Days 4 and 7 of culture, and the wells screened for reactivity on Day 14 using a luminescent proliferation assay in split well format. The original plate was restimulated, and IL-2 added 4 days after restimulation.
T-cell line 222-2D8, generated from Donor 1 by initial stimulation with COP, was shown in at least two experiments to proliferate comparably following restimulation with GMA and COP. […] ATP levels were measured at 48 hours after stimulation. The control in the GMA series was no antigen, and the control in the COP series was MBP. The response to GMA in comparison to COP at the 10 μg/mL dose in this assay was 103.4%.
In a second ATP proliferation assay, carried out on Day 56 or culturing following stimulation with 1, 3, or 10 μg/mL of GMA or COP, the response to GMA in comparison to COP at the 10 μg/mL dose was 107.1%.
T-cell line 222-2F1, generated from Donor 222 by initial stimulation with COP, was shown in at least two experiments to proliferate comparably following restimulation with GMA and COP. […] ATP levels were measured at 48 hours after stimulation. The control in the GMA series was no antigen, and the control in the COP series was MBP. The response to GMA in comparison to COP at the 10 μg/mL dose in this assay was 85.1%.
On Day 56 of culturing, after six total rounds of stimulation, cell line 222-2F12 was assayed for proliferation in response to stimulation with GA and a series of non-canonical peptides. For the assay, 0, 3, 10, or 30 μg/mL of each of peptides GL 14, GLT 631, GAT 111, and GAT 631, COP, and GMA, were added to the T-cell lines at 1×10^5 cells/mL, in the presence of mitomycin C-treated autologous B-LCL. Proliferation was measured by luminescent ATP assay. Cell line 222-2F12 responded to GL 14 at 3 μg/mL, and not to the other non-canonical GA peptides tested. The response to GMA in comparison to COP at the 10 μg/mL dose in this assay was 99.4%.
The cultures were restimulated on days 46, 56, 67 and 75. On Day 56, cell lines 222-2D8, 222-1H12, 222-2F12, 222-2B8, 222-105, 222-2B11, and 222-2E1 again were tested for reactivity to stimulation with 1, 3, or 10 μg/mL of GMA or COP in a proliferation assay. ATP levels were measured in all seven cell lines at 48 hours (results in FIGS. 5A-G) after stimulation. The control in the GMA series was no antigen, and the control in the COP series was MBP. […]

## glatiramer acetate [COP]
[1]; 1 ug/mL antigen
  Proliferation (luminescent ATP assay), Mean: 10056 RLU
[1]; 10 ug/mL antigen
  Proliferation (luminescent ATP assay), Mean: 233083 RLU
[1]; 30 ug/mL antigen
  Proliferation (luminescent ATP assay), Mean: 227055 RLU
[2]; 222-1C5, 10 μg/mL, Day 14, control 7087
  ATP proliferation assay: 14906 RLU
[2]; 222-1F8, 10 μg/mL, Day 14, control 2308
  ATP proliferation assay: 6519 RLU
[2]; 222-1G8, 10 μg/mL, Day 14, control 4030
  ATP proliferation assay: 8308 RLU
[2]; 222-1H12, 10 μg/mL, Day 14, control 8141
  ATP proliferation assay: 23836 RLU
[2]; 222-2B8, 10 μg/mL, Day 14, control 5543
  ATP proliferation assay: 13600 RLU
[2]; 222-2B11, 10 μg/mL, Day 14, control 6340
  ATP proliferation assay: 16460 RLU
[2]; 222-2C1, 10 μg/mL, Day 14, control 8350
  ATP proliferation assay: 20166 RLU
[2]; 222-2C3, 10 μg/mL, Day 14, control 6839
  ATP proliferation assay: 14045 RLU
[2]; 222-2C5, 10 μg/mL, Day 14, control 4695
  ATP proliferation assay: 9577 RLU
[2]; 222-2D2, 10 μg/mL, Day 14, control 7135
  ATP proliferation assay: 16271 RLU
[2]; 222-2D8, 10 μg/mL, Day 14, control 13024
  ATP proliferation assay: 26495 RLU
[2]; 222-2D8, 1 μg/mL (Table 7)
  ATP Proliferation Assay, Mean: 7229
[2]; 222-2D8, 3 μg/mL (Table 7)
  ATP Proliferation Assay, Mean: 134127
[2]; 222-2D8, 10 μg/mL (Table 7)
  ATP Proliferation Assay, Mean: 146092
[2]; 222-2D8, Day 56, 48 hours after stimulation, 1 μg/mL (Table 6)
  ATP proliferation assay: 4888
[2]; 222-2D8, Day 56, 48 hours after stimulation, 3 μg/mL (Table 6)
  ATP proliferation assay: 6392
[2]; 222-2D8, Day 56, 48 hours after stimulation, 10 μg/mL (Table 6)
  ATP proliferation assay: 12161
[2]; 222-2E1, 10 μg/mL, Day 14, control 8035
  ATP proliferation assay: 17064 RLU
[2]; 222-2F12, 10 μg/mL, Day 14, control 9703
  ATP proliferation assay: 28022 RLU
[2]; 222-2F12, Day 56, 3 μg/mL
  luminescent ATP proliferation assay, mean: 233087
[2]; 222-2F12, Day 56, 10 μg/mL
  luminescent ATP proliferation assay, mean: 230009
[2]; 222-2F12, Day 56, 30 μg/mL
  luminescent ATP proliferation assay, mean: 118769
[2]; 222-2F12, Day 56, 48 hours after stimulation, 1 μg/mL (Table 8)
  ATP proliferation assay: 5281
[2]; 222-2F12, Day 56, 48 hours after stimulation, 3 μg/mL (Table 8)
  ATP proliferation assay: 8684
[2]; 222-2F12, Day 56, 48 hours after stimulation, 10 μg/mL (Table 8)
  ATP proliferation assay: 11747
[2]; 222-2G4, 10 μg/mL, Day 14, control 2566
  ATP proliferation assay: 6812 RLU
[2]; 222-2G12, 10 μg/mL, Day 14, control 3913
  ATP proliferation assay: 9899 RLU
[2]; T-cell line 222-1H12, 3 μg/mL antigen, 0 μg/mL 5974
  Proliferation (luminescent ATP assay), Mean: 146874 RLU
[2]; T-cell line 222-1H12, 10 μg/mL antigen, 0 μg/mL 5974
  Proliferation (luminescent ATP assay), Mean: 168163 RLU
[2]; T-cell line 222-1H12, 30 μg/mL antigen, 0 μg/mL 5974
  Proliferation (luminescent ATP assay), Mean: 68492 RLU
[2]; T-cell line 222-2F12, 3 μg/mL antigen, 0 μg/mL 5673
  Proliferation (luminescent ATP assay), Mean: 233087
[2]; T-cell line 222-2F12, 10 μg/mL antigen, 0 μg/mL 5673
  Proliferation (luminescent ATP assay), Mean: 230009
[2]; T-cell line 222-2F12, 30 μg/mL antigen, 0 μg/mL 5673
  Proliferation (luminescent ATP assay), Mean: 118769
[2]; fifteen Donor 1 COP T-cell lines of Table 5, 10 μg/mL
  ATP proliferation signal relative to control: at least twice the signal as control

## poly (Glu-Lys; 1:4) [GL 14]
[1]; 222-AG12, proliferation <2 times no antigen control
  Non-Canonical Peptide Non-Reactivity: GL 14
[1]; Donor 1 GMA expanded lines, stimulation with the non-canonical GA peptide
  Nonreactive T-Cell Line: 222-AG12 (Donor 1)
[1]; 1 ug/mL antigen
  Proliferation (luminescent ATP assay), Mean: 3531 RLU
[1]; 10 ug/mL antigen
  Proliferation (luminescent ATP assay), Mean: 55 RLU
[1]; 30 ug/mL antigen
  Proliferation (luminescent ATP assay), Mean: 43 RLU
[2]; 222-2F12, Day 56, 0, 3, 10, 30 μg/mL, GL 14 response at 3 μg/mL
  proliferation response to non-canonical GA peptides: responded
[2]; 222-2F12, Day 56, 3 μg/mL
  luminescent ATP proliferation assay, mean: 17007
[2]; 222-2F12, Day 56, 10 μg/mL
  luminescent ATP proliferation assay, mean: 331
[2]; 222-2F12, Day 56, 30 μg/mL
  luminescent ATP proliferation assay, mean: 203
[2]; 222-2F12, at least one proliferation value >=2 times no antigen control
  Non-Canonical Peptide Reactivity: GL 14
[2]; Donor 1 COP lines, at least a 50% increase in proliferation relative to a control after stimulation with the non-canonical GA peptide
  Reactive T-Cell Line: 222-2F12 (Donor 1)
[2]; Donor 1 COP lines, stimulation with the non-canonical GA peptide
  Nonreactive T-Cell Line: 222-1H12 (Donor 1)
